Experimental data published in PubChem BioAssay AID260 (DTP/NCI, 2004).
Several values for one entry are separate records, joined by “and”; a condition that tells them apart may be missing. Equal values may be shown once. Inconclusive results and toxic doses are left out.

System: CD2F1 mice, intracerebral L1210 leukemia, survival T/C
Assay: NCI In Vivo Anticancer Drug Screen. Data for tumor model L1210 Leukemia (intracerebral) in CD2F1 (CDF1) mice
Conditions: higher = longer survival
Protocol: The antitumor activity of compounds was measured in mice bearing transplantable tumors. Survival or tumor size were measured and the results are expressed as the measurement made in the treated group (T) divided by the measurement made in the vehicle treated control group (C). The tumor model used in this assay is L1210 Leukemia (intracerebral) in CD2F1 (CDF1) mice

[1] = endpoint: median survival time, dose: 8.0 mg/kg/injection, schedule: Q01DX005 (ip), vehicle: saline + alcohol
[2] = endpoint: median survival time, dose: 16.0 mg/kg/injection, schedule: Q01DX005 (ip), vehicle: saline + alcohol
[3] = endpoint: median survival time, dose: 32.0 mg/kg/injection, schedule: Q01DX005 (ip), vehicle: saline + alcohol
[4] = endpoint: median survival time, dose: 64.0 mg/kg/injection, schedule: Q01DX005 (ip), vehicle: saline + alcohol

How did the T/C (endpoint: mean survival time, dose: 5.0 mg/kg/injection, schedule: Q01DX007 (ip), vehicle: other) turn out when CN(C)N=Nc1ccccc1C(=O)O was run?
The T/C was 103 % of control.

What about the T/C (endpoint: mean survival time, dose: 10.0 mg/kg/injection, schedule: Q01DX007 (ip), vehicle: other) of the same compound?
Its T/C is 109 % of control.

And the T/C (endpoint: mean survival time, dose: 20.0 mg/kg/injection, schedule: Q01DX007 (ip), vehicle: other)?
The T/C was 112 % of control.

What about the T/C (endpoint: mean survival time, dose: 40.0 mg/kg/injection, schedule: Q01DX007 (ip), vehicle: other) of the same compound?
The T/C was 101 % of control.

What about the T/C (endpoint: median survival time, dose: 4.0 mg/kg/injection, schedule: Q01DX005 (ip), vehicle: saline + alcohol) of the same compound?
The T/C was 105 % of control.

What about the T/C [1] of the same compound?
The T/C was 102 % of control.

What about the T/C [2] of the same compound?
The T/C was 105 % of control.

What about the T/C [3] of the same compound?
Its T/C is 108 % of control.

And the T/C [4]?
The T/C was 97 % of control.

With CN(C)N=Nc1ccccc1Cl as the compound, how does the T/C [1] read?
The T/C was 98 % of control.

What about the T/C [2] of the same compound?
The T/C was 106 % of control.

And the T/C [3]?
The T/C was 102 % of control.

What about the T/C [4] of the same compound?
Its T/C is 102 % of control.

And the T/C (endpoint: median survival time, dose: 128.0 mg/kg/injection, schedule: Q01DX005 (ip), vehicle: saline + alcohol)?
The T/C was 105 % of control.

How did the T/C (endpoint: median survival time, dose: 18.75 mg/kg/injection, schedule: Q01DX005 (ip), vehicle: other) turn out when C[C@]12CCC(=O)C=C1CC[C@@H]1[C@@H]2[C@@H](O)C[C@@]2(C)[C@H]1CC[C@]2(O)C(=O)COP(=O)(O)OCC1OC(n2ccc(N)nc2=O)C(O)C1O (some centres not stated) was run?
Its T/C is 116 % of control.

What about the T/C (endpoint: median survival time, dose: 150.0 mg/kg/injection, schedule: Q01DX005 (ip), vehicle: other) of the same compound?
Its T/C is 160 % of control.

And the T/C (endpoint: median survival time, dose: 300.0 mg/kg/injection, schedule: Q01DX005 (ip), vehicle: other)?
Its T/C is 169 % of control.

With COc1cc(C[C@H]2c3cc(OC)c(OC)cc3CCN2C)c(Oc2cc3c(cc2OC)-c2c(OC)c(OC)cc4c2[C@H](C3)N(C)CC4)cc1OC as the compound, how does the T/C (endpoint: median survival time, dose: 50.0 mg/kg/injection, schedule: Q01DX005 (ip), vehicle: Klucel (hydroxypropylcellulose) (HPC)) read?
Its T/C is 97 % of control.

What about the T/C (endpoint: median survival time, dose: 100.0 mg/kg/injection, schedule: Q01DX005 (ip), vehicle: Klucel (hydroxypropylcellulose) (HPC)) of the same compound?
Its T/C is 102 % of control.

What about the T/C (endpoint: median survival time, dose: 200.0 mg/kg/injection, schedule: Q01DX005 (ip), vehicle: Klucel (hydroxypropylcellulose) (HPC)) of the same compound?
Its T/C is 94 % of control.

For CN(CO)c1nc(N(C)CO)nc(N(C)CO)n1, which T/C (endpoint: median survival time, dose: 3.12 mg/kg/injection, schedule: Q01DX009 (ip), vehicle: saline with Tween-80) is on record?
Its T/C is 101 % of control.

And the T/C (endpoint: median survival time, dose: 6.25 mg/kg/injection, schedule: Q01DX009 (ip), vehicle: saline with Tween-80)?
Its T/C is 96 % of control.

What about the T/C (endpoint: median survival time, dose: 12.5 mg/kg/injection, schedule: Q01DX009 (ip), vehicle: saline with Tween-80) of the same compound?
Its T/C is 100 % of control.

And the T/C (endpoint: median survival time, dose: 25.0 mg/kg/injection, schedule: Q01DX009 (ip), vehicle: saline with Tween-80)?
Its T/C is 95 % of control.

What about the T/C (endpoint: median survival time, dose: 50.0 mg/kg/injection, schedule: Q01DX009 (ip), vehicle: Klucel (hydroxypropylcellulose) (HPC)) of the same compound?
Its T/C is 104 % of control and 109 % of control.

What about the T/C (endpoint: median survival time, dose: 50.0 mg/kg/injection, schedule: Q01DX009 (ip), vehicle: saline with Tween-80) of the same compound?
The T/C was 104 % of control.

What about the T/C (endpoint: median survival time, dose: 100.0 mg/kg/injection, schedule: Q01DX009 (ip), vehicle: Klucel (hydroxypropylcellulose) (HPC)) of the same compound?
Its T/C is 119 % of control and 116 % of control.

What does the source list for CC(=O)OC1(C)CC(C)C(=O)C(C(O)CC2CC(=O)NC(=O)C2)C1 (configuration not stated)?
T/C (endpoint: mean survival time, dose: 0.04 mg/kg/injection, schedule: Q01DX009 (ip), vehicle: saline): 101 % of control; T/C (endpoint: mean survival time, dose: 0.06 mg/kg/injection, schedule: Q01DX009 (ip), vehicle: saline): 101 % of control; T/C (endpoint: mean survival time, dose: 0.13 mg/kg/injection, schedule: Q01DX009 (ip), vehicle: saline): 108 % of control; T/C (endpoint: mean survival time, dose: 0.25 mg/kg/injection, schedule: Q01DX009 (ip), vehicle: saline): 111 % of control; T/C (endpoint: mean survival time, dose: 0.5 mg/kg/injection, schedule: Q01DX009 (ip), vehicle: saline): 105 % of control

With CC(=O)c1ccccc1N=NN(C)C as the compound, how does the T/C (endpoint: mean survival time, dose: 10.0 mg/kg/injection, schedule: Q01DX007 (ip), vehicle: DMSO) read?
Its T/C is 91 % of control.

And the T/C (endpoint: mean survival time, dose: 20.0 mg/kg/injection, schedule: Q01DX007 (ip), vehicle: DMSO)?
Its T/C is 91 % of control.

What about the T/C (endpoint: mean survival time, dose: 40.0 mg/kg/injection, schedule: Q01DX007 (ip), vehicle: DMSO) of the same compound?
The T/C was 93 % of control.

What about the T/C (endpoint: mean survival time, dose: 80.0 mg/kg/injection, schedule: Q01DX007 (ip), vehicle: DMSO) of the same compound?
The T/C was 103 % of control.

What about the T/C (endpoint: mean survival time, dose: 120.0 mg/kg/injection, schedule: Q01DX007 (ip), vehicle: DMSO) of the same compound?
Its T/C is 100 % of control.

How did the T/C (endpoint: median survival time, dose: 0.75 mg/kg/injection, schedule: Q01DX009 (ip), vehicle: water) turn out when CC(C)(CO)COC(=O)NC1=C(N2CC2)C(=O)C(NC(=O)OCC(C)(C)CO)=C(N2CC2)C1=O was run?
Its T/C is 102 % of control and 105 % of control.

And the T/C (endpoint: median survival time, dose: 1.5 mg/kg/injection, schedule: Q01DX009 (ip), vehicle: water)?
The T/C was 103 % of control and 108 % of control.

And the T/C (endpoint: median survival time, dose: 3.0 mg/kg/injection, schedule: Q01DX009 (ip), vehicle: water)?
Its T/C is 105 % of control and 110 % of control.

What about the T/C (endpoint: median survival time, dose: 6.0 mg/kg/injection, schedule: Q01DX009 (ip), vehicle: water) of the same compound?
The T/C was 110 % of control and 113 % of control.

What about the T/C (endpoint: median survival time, dose: 12.0 mg/kg/injection, schedule: Q01DX009 (ip), vehicle: water) of the same compound?
Its T/C is 119 % of control and 113 % of control.
